In PMC11346425, “Sulfoquinovosyl diacylglycerol is required for dimerisation of the Rhodobacter sphaeroides reaction centre-light harvesting 1 core complex” (Biochemical Journal, 2024):

Legend:
Assay in all cases: light-driven cytochrome c2 oxidation at […] nm, steady state
Format in all cases: biochemical
[1] = target: T1, monomeric RC-LH1 core complex (RC3-LH1_14-XY) (Cereibacter sphaeroides, UniProt Q3J1A5+Q3J1A6); conditions: 50 uM ubiquinone-2, 5 uM reduced cytochrome c2, 810 nm LED, pH 8, 0.03% beta-DDM; electron acceptor; 0.05 uM RC-LH1
T1 construct: gene pufL; native, beta-DDM-solubilised membranes, sucrose gradient monomer band; 1 RC, C-shaped LH1 of 14 subunits; with Reaction center protein M chain; Reaction center protein H chain; Light-harvesting protein B-875 alpha chain; Light-harvesting protein B-875 beta chain; Intrinsic membrane protein PufX; Protein-Y

[2] = target: T1, monomeric RC-LH1 core complex (RC3-LH1_14-XY); conditions: 50 uM ubiquinone-2, 5 uM reduced cytochrome c2, 810 nm LED, pH 8, 0.03% beta-DDM; electron acceptor
[3] = target: T2, dimeric RC-LH1 core complex (Cereibacter sphaeroides, UniProt Q3J1A5+Q3J1A6); conditions: 50 uM ubiquinone-2, 5 uM reduced cytochrome c2, 810 nm LED, pH 8, 0.03% beta-DDM; electron acceptor; 0.01 uM RC-LH1
T2 construct: gene pufL; native, beta-DDM-solubilised membranes, sucrose gradient dimer band; 2 RC, S-shaped LH1 of 28 subunits; with Reaction center protein M chain; Reaction center protein H chain; Light-harvesting protein B-875 alpha chain; Light-harvesting protein B-875 beta chain; Intrinsic membrane protein PufX; Protein-Y; Protein-Z

Which “light-driven cytochrome c2 oxidation at 550 nm, steady state” value (shortened to “light-driven cytochrome c2 oxidation”) [1] does the source give for `COC1=C(OC)C(=O)C(C/C=C(\C)CCC=C(C)C)=C(C)C1=O` [ubiquinone-2] here?
Its value is “Turnover assays for monomeric complexes from WT, PufX R49L R53L, ΔolsBA and ΔsqdB mutants”.

And the “light-driven cytochrome c2 oxidation” value [2]?
Its value is “light-driven oxidation rate of cytochrome c2 by monomeric and dimeric complexes in the presence of ubiquinone-2”.

What about the “light-driven cytochrome c2 oxidation” value [3] of the same compound?
Its value is “light-driven oxidation rate of cytochrome c2 by monomeric and dimeric complexes in the presence of ubiquinone-2”.
